Source: PMC10215804, “Exploring Alternative Pathways to Target Bacterial Type II Topoisomerases Using NBTI Antibacterials: Beyond Halogen-Bonding Interactions” (Antibiotics, 2023)
Where two headings read alike, the source gives them in different places.

Legend:
[1] = biological target: T1, S. aureus DNA gyrase (Staphylococcus aureus, UniProt P20831); assay: biochemical; details: supercoiling inhibition; mean of two independent measurements ± SD
T1 construct: purchased Inspiralis (Norwich, UK)
Method: (§1) To determine the IC50 values of the compounds for S. aureus and E. coli, a DNA gyrase supercoiling high-throughput plate assay and a topoIV relaxation high-throughput plate assay were performed. Assay kits and black streptavidin-coated 96-well microtiter plates are available from Inspiralis (Norwich, UK). For pre-screening, an inhibitor concentration of 100 μM was used. […] A nonlinear regression-based fit of the inhibition curves was used, with the log [inhibitor] versus slope of the reaction variables (four parameters) and a symmetric equation. […] To determine IC50 values, two independent repetitions were performed and the average was calculated.

[2] = biological target: T2, S. aureus topoIV (Staphylococcus aureus, UniProt P0C1U9); assay: biochemical; details: relaxation inhibition; mean of two independent measurements ± SD
T2 construct: purchased Inspiralis (Norwich, UK)
Method: as §1

[3] = biological target: T3, E. coli DNA gyrase (Escherichia coli, UniProt P0AES4); assay: DNA gyrase supercoiling inhibition assay (high-throughput plate assay); assay type: biochemical
T3 construct: purchased Inspiralis (Norwich, UK)
Method: as §1

[4] = biological target: T4, E. coli topoIV (Escherichia coli, UniProt P0AFI2); assay: topoIV relaxation inhibition assay (high-throughput plate assay); assay type: biochemical
T4 construct: purchased Inspiralis (Norwich, UK)
Method: as §1

[5] = biological target: T5, human topoisomerase IIα (Homo sapiens, UniProt P11388); assay: human topoisomerase II alpha relaxation high-throughput assay (selectivity); assay type: biochemical; details: residual activity at 100 µM compound; mean ± SD, two independent experiments; read-out: Human TopoIIα (% RA at 100 µM)
T5 construct: purchased Inspiralis (Norwich, UK)
Method: For selectivity determination, a human topoisomerase II alpha relaxation high-throughput assay was used. The assay kits and black streptavidin-coated 96-well microtiter plates are available from Inspiralis (Norwich, UK). Two independent measurements were performed with an inhibitory concentration of 100 µM. Raw data were calculated as the mean ± SD percentage of the residual enzyme activity.

[6] = test system: A. baumannii; assay: MIC, broth microdilution; assay type: cell-based; details: Acinetobacter baumannii
Procedure, shortened: (§2)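 Read-out was visual: the lowest compound concentration that prevented bacterial growth defined the MIC. Testing followed CLSI and EUCAST microdilution recommendations, using cation-adjusted Mueller–Hinton broth with TES and an end inoculum of 10^5 CFU/mL.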

[7] = test system: E. coli (ATCC 25922); assay: MIC, broth microdilution; assay type: cell-based; details: Escherichia coli
Procedure, shortened: as §2

[8] = test system: E. coli D22; assay: MIC, broth microdilution; assay type: cell-based; details: Escherichia coli
Procedure, shortened: (§3)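 Following CLSI and EUCAST guidelines, compounds (DMSO solutions) were combined with bacterial inoculum at a final 10^5 CFU/mL in TES-containing cation-adjusted Mueller–Hinton broth. The endpoint was absence of visible growth.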

[9] = test system: E. coli ESBL QA-11.3; assay: MIC, broth microdilution; assay type: cell-based; details: Escherichia coli
Procedure, shortened: as §2

[10] = test system: E. coli N43 (CGSC# 5583); assay: MIC, broth microdilution; assay type: cell-based; details: Escherichia coli
Procedure, shortened: as §2

[11] = test system: E. faecalis RDK 057; assay: MIC, broth microdilution; assay type: cell-based
Procedure, shortened: as §3

[12] = test system: K. pneumoniae; assay: MIC, broth microdilution; assay type: cell-based; details: Klebsiella pneumoniae
Procedure, shortened: as §2

[13] = test system: P. aeruginosa RDK 184; assay: MIC, broth microdilution; assay type: cell-based; details: Pseudomonas aeruginosa
Procedure, shortened: as §2

[14] = test system: S. aureus (ATCC 29213); assay: MIC, broth microdilution; assay type: cell-based; details: Staphylococcus aureus, ATCC29213
Procedure, shortened: as §3

[15] = test system: VRE; assay: MIC, broth microdilution; assay type: cell-based; details: Enterococcus
Procedure, shortened: as §2

[16] = test system: MRSA (QA-11.2); assay: MIC, broth microdilution; assay type: cell-based, S. aureus; details: Staphylococcus aureus
Method: (§4) For the determination of minimum inhibitory concentrations (MIC), the broth microdilution method was used in 96-well plate format, according to the guidelines of the Clinical and Laboratory Standards Institute and the recommendations of the European Committee on Antimicrobial Susceptibility Testing (EUCAST). The dilutions of the bacterial suspension of the specific bacterial strain, corresponding to the 0.5 McFarland turbidity standard, were prepared with […] Mueller–Hinton broth with TES (Thermo Fisher Scientific) to obtain an end inoculum of 10^5 CFU/mL. The compounds were dissolved in DMSO and mixed with the inoculum. […] The MIC was determined as the lowest concentration of antibiotic that prevented visible bacterial growth. Tetracycline was used as a positive control on each test plate.

[17] = test system: MRSA (QA-11.7); assay: MIC, broth microdilution; assay type: cell-based, S. aureus; details: Staphylococcus aureus
Method: as §4

[18] = test system: MRSA(QA-12.1); assay: MIC, broth microdilution; assay type: cell-based, S. aureus; details: Staphylococcus aureus
Method: as §4

[19] = Table S3, read-out: MIC (μM) A. baumannii
[20] = ATCC25922, Table S3, read-out: MIC (μM) E. coli (ATCC 25922)
[21] = ATCC25922, read-out: MIC E. coli (ATCC 25922)
[22] = D22, lpxC mutation that increases membrane permeability, read-out: MIC E. coli D22
[23] = ESBLQA11.3, Table S3, read-out: MIC (μM) E. coli ESBL QA:11.3
[24] = ESBLQA11.3, read-out: MIC E. coli ESBL QA-11.3
[25] = read-out: MIC E. coli N43 (CGSC# 5583)
[26] = Enterococcus faecalis, RDK057; Table S3; read-out: MIC (μM) E. faecalis DRK 057
[27] = Enterococcus faecalis, RDK057; read-out: MIC E. faecalis RDK 057
[28] = Table S3, read-out: MIC (μM) K. pneumoniae
[29] = RDK184, 20 h, Table S3, read-out: MIC (μM) P. aeruginosa RDK 184
[30] = RDK184, read-out: MIC P. aeruginosa RDK 184
[31] = Table S3, read-out: MIC (μM) S. aureus (ATCC 29213)
[32] = read-out: MIC S. aureus (ATCC 29213)
[33] = Table S3, read-out: MIC (μM) VRE
[34] = Table S3, read-out: MIC (μM) MRSA (QA-11.2)
[35] = Table S3, read-out: MIC (μM) MRSA (QA-11.7)
[36] = strain resistant to cefoxitin, ciprofloxacin, clindamycin, erythromycin, tetracycline, thiamulin, trimethoprim, read-out: MIC MRSA (QA-11.7)
[37] = Table S3, read-out: MIC (μM) MRSA(QA-12.1)
[38] = strain resistant to cefoxitin, gentamicin, kanamycin, rifampicin, streptomycin, sulfamethoxazole, tetracycline, read-out: MIC MRSA(QA-12.1)
[39] = ATCC25922, 20 h, Table S3, read-out: MIC (μM) E. coli (ATCC 25922)
[40] = D22, Table S3, lpxC mutation, read-out: MIC (μM) E. coli D22
[41] = ESBLQA11.3, 20 h, Table S3, read-out: MIC (μM) E. coli ESBL QA:11.3
[42] = 20 h, Table S3, read-out: MIC (μM) K. pneumoniae

T1 sequence (P20831 whole entry): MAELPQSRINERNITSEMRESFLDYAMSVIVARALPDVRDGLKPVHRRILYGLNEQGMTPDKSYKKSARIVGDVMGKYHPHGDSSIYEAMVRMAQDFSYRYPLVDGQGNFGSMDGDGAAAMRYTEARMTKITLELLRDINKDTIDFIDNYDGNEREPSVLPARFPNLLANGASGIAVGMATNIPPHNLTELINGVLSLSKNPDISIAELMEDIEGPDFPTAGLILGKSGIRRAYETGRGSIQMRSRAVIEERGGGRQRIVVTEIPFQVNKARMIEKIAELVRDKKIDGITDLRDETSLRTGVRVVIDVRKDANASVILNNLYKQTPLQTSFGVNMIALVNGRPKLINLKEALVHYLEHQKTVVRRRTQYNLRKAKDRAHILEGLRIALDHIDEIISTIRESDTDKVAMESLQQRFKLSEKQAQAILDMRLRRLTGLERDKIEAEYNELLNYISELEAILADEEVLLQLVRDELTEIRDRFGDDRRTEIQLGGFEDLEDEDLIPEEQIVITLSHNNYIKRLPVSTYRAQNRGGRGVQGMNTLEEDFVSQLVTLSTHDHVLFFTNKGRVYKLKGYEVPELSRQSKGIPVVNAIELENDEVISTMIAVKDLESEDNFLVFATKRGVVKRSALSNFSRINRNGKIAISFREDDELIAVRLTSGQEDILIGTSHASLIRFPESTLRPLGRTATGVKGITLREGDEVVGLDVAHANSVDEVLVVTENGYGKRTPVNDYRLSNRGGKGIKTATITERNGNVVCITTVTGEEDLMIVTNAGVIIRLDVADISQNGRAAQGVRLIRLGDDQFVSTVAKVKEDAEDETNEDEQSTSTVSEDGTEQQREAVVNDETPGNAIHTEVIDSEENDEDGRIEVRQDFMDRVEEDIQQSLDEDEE
T1 sequence (P0A0K8 whole entry partner): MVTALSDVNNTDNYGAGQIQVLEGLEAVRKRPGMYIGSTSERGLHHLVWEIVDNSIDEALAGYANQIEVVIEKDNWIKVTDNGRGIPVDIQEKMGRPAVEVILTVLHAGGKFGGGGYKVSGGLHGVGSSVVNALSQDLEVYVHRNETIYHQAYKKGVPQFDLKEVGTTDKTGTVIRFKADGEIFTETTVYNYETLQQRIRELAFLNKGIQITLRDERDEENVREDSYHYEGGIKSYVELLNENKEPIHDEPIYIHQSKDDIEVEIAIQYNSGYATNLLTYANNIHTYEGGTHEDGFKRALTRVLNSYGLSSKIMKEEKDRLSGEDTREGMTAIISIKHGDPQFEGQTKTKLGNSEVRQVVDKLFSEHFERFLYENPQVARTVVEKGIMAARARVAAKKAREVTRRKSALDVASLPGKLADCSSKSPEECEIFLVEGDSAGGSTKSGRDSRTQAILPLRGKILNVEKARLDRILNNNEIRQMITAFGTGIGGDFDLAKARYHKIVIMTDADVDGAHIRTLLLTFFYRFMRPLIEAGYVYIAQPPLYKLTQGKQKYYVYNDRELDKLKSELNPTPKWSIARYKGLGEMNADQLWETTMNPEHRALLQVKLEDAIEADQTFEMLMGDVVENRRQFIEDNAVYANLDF
T3 sequence (P0AES4 whole entry): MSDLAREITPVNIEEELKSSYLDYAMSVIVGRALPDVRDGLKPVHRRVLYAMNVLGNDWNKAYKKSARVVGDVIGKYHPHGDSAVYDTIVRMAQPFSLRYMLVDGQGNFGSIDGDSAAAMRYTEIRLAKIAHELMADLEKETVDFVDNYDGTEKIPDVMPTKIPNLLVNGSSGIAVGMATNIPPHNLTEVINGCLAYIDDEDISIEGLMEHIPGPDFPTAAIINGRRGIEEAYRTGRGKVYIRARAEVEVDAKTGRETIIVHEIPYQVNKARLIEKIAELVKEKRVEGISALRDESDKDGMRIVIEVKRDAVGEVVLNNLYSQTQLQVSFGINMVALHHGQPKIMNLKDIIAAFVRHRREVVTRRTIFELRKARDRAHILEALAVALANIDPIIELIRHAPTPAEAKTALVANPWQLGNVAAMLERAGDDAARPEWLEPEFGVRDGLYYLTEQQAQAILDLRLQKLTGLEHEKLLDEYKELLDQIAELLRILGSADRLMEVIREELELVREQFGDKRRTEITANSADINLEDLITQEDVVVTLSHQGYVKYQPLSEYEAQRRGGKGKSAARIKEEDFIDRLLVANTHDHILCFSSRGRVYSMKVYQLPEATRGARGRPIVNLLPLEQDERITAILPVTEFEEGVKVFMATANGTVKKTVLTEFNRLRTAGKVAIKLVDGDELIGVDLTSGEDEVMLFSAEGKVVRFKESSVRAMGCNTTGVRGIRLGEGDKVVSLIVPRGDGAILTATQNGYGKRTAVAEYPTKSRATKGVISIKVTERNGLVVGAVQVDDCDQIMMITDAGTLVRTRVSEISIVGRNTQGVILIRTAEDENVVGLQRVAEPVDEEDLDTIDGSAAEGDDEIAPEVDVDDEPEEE
T5 sequence (P11388 whole entry): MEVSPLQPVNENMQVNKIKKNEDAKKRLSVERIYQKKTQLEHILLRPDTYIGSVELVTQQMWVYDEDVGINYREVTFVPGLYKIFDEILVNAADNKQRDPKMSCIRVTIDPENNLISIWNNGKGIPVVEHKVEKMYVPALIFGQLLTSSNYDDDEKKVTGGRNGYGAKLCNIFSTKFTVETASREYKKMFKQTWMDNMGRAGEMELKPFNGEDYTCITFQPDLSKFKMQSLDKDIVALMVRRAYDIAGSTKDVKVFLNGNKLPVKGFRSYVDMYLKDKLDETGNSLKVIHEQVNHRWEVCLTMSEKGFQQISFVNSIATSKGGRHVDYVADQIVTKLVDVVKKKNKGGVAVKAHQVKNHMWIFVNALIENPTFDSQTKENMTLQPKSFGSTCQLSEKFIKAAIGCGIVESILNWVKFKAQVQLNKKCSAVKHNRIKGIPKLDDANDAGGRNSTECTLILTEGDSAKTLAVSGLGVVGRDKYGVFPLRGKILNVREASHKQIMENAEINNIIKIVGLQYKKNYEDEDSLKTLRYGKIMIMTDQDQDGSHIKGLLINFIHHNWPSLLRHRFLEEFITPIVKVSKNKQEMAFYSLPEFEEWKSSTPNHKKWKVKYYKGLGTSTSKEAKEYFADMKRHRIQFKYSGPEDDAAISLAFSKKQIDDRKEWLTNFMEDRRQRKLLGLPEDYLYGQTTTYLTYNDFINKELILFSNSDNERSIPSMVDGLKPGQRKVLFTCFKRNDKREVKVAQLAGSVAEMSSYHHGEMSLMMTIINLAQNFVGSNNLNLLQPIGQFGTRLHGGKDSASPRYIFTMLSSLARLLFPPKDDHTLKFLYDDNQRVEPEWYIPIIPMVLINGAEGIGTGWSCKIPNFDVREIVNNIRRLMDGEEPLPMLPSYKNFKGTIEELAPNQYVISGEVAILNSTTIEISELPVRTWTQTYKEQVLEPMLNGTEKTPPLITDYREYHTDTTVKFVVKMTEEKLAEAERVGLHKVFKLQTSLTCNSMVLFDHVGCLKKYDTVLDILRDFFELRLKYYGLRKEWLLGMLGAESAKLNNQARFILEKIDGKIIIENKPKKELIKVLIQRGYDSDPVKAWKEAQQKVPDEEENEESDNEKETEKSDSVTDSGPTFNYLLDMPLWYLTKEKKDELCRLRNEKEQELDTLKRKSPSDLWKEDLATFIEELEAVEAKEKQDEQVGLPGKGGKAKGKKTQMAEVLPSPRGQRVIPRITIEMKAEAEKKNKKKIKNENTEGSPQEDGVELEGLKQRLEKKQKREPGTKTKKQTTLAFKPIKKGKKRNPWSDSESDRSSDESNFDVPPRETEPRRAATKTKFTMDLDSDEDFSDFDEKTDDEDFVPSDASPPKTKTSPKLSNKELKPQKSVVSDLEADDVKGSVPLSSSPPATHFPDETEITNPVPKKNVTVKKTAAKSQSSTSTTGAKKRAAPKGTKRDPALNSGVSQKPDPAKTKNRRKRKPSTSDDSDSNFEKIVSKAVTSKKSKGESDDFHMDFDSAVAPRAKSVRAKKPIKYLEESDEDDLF

SMILES | IC50 [1] | IC50 [2] | IC50 [3] | IC50 [4] | remaining activity at 100 µM [5] | MIC [6, 19] | MIC ([6]; read-out: MIC A. baumannii) | MIC [7, 21] | MIC [8, 22] | MIC [9, 24] | MIC ([10]; read-out: MIC (μM) E. coli N43) | MIC [10, 25] | MIC ([12]; read-out: MIC K. pneumoniae) | MIC [13, 29] | MIC [13, 30] | MIC [14, 31] | MIC [14, 32] | MIC [15, 33] | MIC ([15]; read-out: MIC VRE) | MIC [16, 34] | other results
COc1ccc2nccc(C(O)CC3CCC(NCc4ccc(C)cc4)CC3)c2n1 (stereo not shown) [Compound 8, 1-(6-Methoxy-1,5-naphthyridin-4-yl)-2-(4-((4-methylbenzyl)amino)cyclohexyl)ethan-1-ol] | 0.077 ± 0.01 µM | 2.5 ± 0.252 µM | 1.32 ± 0.46 µM | 0.083 µM | 100 ± 1% | 5.12 µM | 2 µg/mL | 8 µg/mL | 1 µg/mL | 8 µg/mL | 2.56 µM | 1 µg/mL | 16 µg/mL | 328 µM | 128 µg/mL | 0.161 µM | 0.063 µg/mL | 0.32 µM | 0.125 µg/mL | 0.082 µM | MIC [7, 20]: 20.5 µM; MIC ([8]; D22, read-out: MIC (μM) E. coli D22): 2.56 µM; MIC [9, 23]: 20.5 µM; MIC [11, 26]: 0.64 µM; MIC [11, 27]: 0.25 µg/mL; MIC [12, 28]: 41 µM; MIC ([16]; read-out: MIC MRSA (QA-11.2)): 0.032 µg/mL; MIC [17, 35]: 0.32 µM; MIC [17, 36]: 0.125 µg/mL; MIC [18, 37]: 0.161 µM; MIC [18, 38]: 0.063 µg/mL
COc1ccc2nccc(OCC3CCC(NCc4ccc(C)cc4)CO3)c2n1 (stereo not shown) [Compound 7, 6-(((6-Methoxy-1,5-naphthyridin-4-yl)oxy)methyl)-N-(4-methylbenzyl)tetrahydro-2H-pyran-3-amine] | 0.194 ± 0.018 µM | > 100 µM | 1.31 ± 0.348 µM | 1.53 ± 0.043 µM | 101% | 164 µM | 64 µg/mL | > 128 µg/mL | 32 µg/mL | > 128 µg/mL | 10.2 µM | 4 µg/mL | > 128 µg/mL | > 328 µM | > 128 µg/mL | 1.28 µM | 0.5 µg/mL | 5.12 µM | 2 µg/mL | 0.64 µM | MIC [7, 39]: > 328 µM; MIC [8, 40]: 81.9 µM; MIC [9, 41]: > 328 µM; MIC ([11]; Enterococcus faecalis, RDK057, read-out: MIC (μM) E. faecalis DRK 057): 10.2 µM; MIC [11, 27]: 4 µg/mL; MIC [12, 42]: > 328 µM; MIC ([16]; read-out: MIC MRSA (QA-11.2)): 0.25 µg/mL; MIC [17, 35]: 2.56 µM; MIC [17, 36]: 1 µg/mL; MIC [18, 37]: 1.28 µM; MIC [18, 38]: 0.5 µg/mL
COc1ccc2nccc(OCC3CCC(NCc4ccc(C)cc4)CC3)c2n1 (stereo not shown) [Compound 6] | 0.403 ± 0.02 µM | > 100 µM | 1.52 ± 0.361 µM | 2.89 ± 0.88 µM | 101% | 164 µM | 64 µg/mL | > 128 µg/mL | 32 µg/mL | > 128 µg/mL | 10.2 µM | 4 µg/mL | > 128 µg/mL | > 328 µM | > 128 µg/mL | 2.56 µM | 1 µg/mL | 5.12 µM | 2 µg/mL | 1.28 µM | MIC [7, 39]: > 328 µM; MIC [8, 40]: 81.9 µM; MIC [9, 41]: > 328 µM; MIC [11, 26]: 20.5 µM; MIC [11, 27]: 8 µg/mL; MIC [12, 42]: > 328 µM; MIC ([16]; read-out: MIC MRSA (QA-11.2)): 0.5 µg/mL; MIC [17, 35]: 2.56 µM; MIC [17, 36]: 1 µg/mL; MIC [18, 37]: 5.12 µM; MIC [18, 38]: 2 µg/mL
COc1ccc2nccc(CCN3CCC(NCc4ccc(C)cc4)CC3)c2n1 [Compound 5, 1-(2-(6-Methoxy-1,5-naphthyridin-4-yl)ethyl)-N-(4-methylbenzyl)piperidin-4-amine] | 0.145 ± 0.014 µM | 1.23 ± 0.258 µM | 1.019 ± 0.005 µM | 0.089 ± 0.019 µM | 103% | 2.56 µM | 1 µg/mL | 2 µg/mL | 1 µg/mL | 4 µg/mL | 0.32 µM | 0.125 µg/mL | 16 µg/mL | > 328 µM | > 128 µg/mL | 0.082 µM | 0.032 µg/mL | 0.082 µM | 0.032 µg/mL | 0.082 µM | MIC [7, 20]: 5.12 µM; MIC [8, 40]: 2.56 µM; MIC [9, 23]: 10.2 µM; MIC ([11]; Enterococcus faecalis, RDK057, read-out: MIC E. faecalis RDK 057): 0.125 µg/mL; MIC [11, 26]: 0.32 µM; MIC [12, 28]: 41 µM; MIC ([16]; read-out: MIC MRSA (QA-11.2)): 0.032 µg/mL; MIC [17, 35]: 0.041 µM; MIC [17, 36]: 0.016 µg/mL; MIC [18, 37]: 0.041 µM; MIC [18, 38]: 0.016 µg/mL
